Structures are written as SMILES.

The subject of one assay is Candida albicans. Kind of assay: in vivo oral protection of mice inoculated with a lethal infection of Candida albicans. The note with it: oral administration to mice with lethal Candida albicans infection; survival of treated group after death of untreated group, 48 hours observation. How it is done: The in vivo evaluation of the compounds can be carried out at a series of dose levels by intraperitoneal or intravenous injection or by oral administration, to mice which are inoculated with a strain of Candida albicans. Activity is based on the survival of a treated group of mice after the death of an untreated group of mice following 48 hours observation. The dose level at which the compound provides 50X protection against the lethal effect of the infection is noted.
The compounds of the Examples were tested in vivo by oral administration to mice inoculated with a lethal infection of Candida albicans according to the procedures described herein. The dose levels providing 50% protection (PD50) were as follows: […]
Consider `Cn1ncnc1CC(O)(Cn1cncn1)c1ccc(Cl)cc1Cl` (stereo not drawn) [Example 3 (2), 2-(2,4-Dichlorophenyl)-1-(2-methyl-1,2,4-triazol-3-yl)-3-(1H-1-2,4-triazol-1-yl)propan-2-ol], for which the “PD50 (dose level providing 50% protection)” value is recorded as 20 mg/kg/p.o. The same measure, in the same setting: to `Cn1cnnc1CC(O)(Cn1cncn1)c1ccc(Cl)cc1Cl` (stereo not drawn) [Example 3 (3), 2-(2,4-Dichlorophenyl)-1-(4-methyl-1,2,4-triazol-3-yl)-3-(1H-1,2,4-triazol-l-yl)propan-2-ol] belongs 3.5 mg/kg/p.o.

Still in this assay, the particulars now being: oral administration to mice with lethal Candida albicans infection; survival of treated group after death of untreated group, 48 hours observation; read-out: PD50 (dose level providing 50% protection).
As to `Cn1ccnc1CC(O)(Cn1cncn1)c1ccc(Cl)cc1Cl` (stereo not drawn) [Example 5, 2-(2,4-Dichlorophenyl)-1-(1-methylimidazol-2-yl)-3-(1H-1,2,4-triazol-1-yl)propan-2-ol dimesylate], the ED50 is 1 mg/kg. Consider `Cn1nnnc1CC(O)(Cn1cncn1)c1ccc(Cl)cc1Cl` (stereo not drawn) [Example 1, 2-(2,4-Dichlorophenyl)-1-(1-methyltetrazol-5-yl)-3-(lH-1,2,4-triazol-l-yl)propan-2-ol], for which the ED50 turned out to be 0.1 mg/kg. For the molecule `OC(Cc1ncc[nH]1)(Cn1cncn1)c1ccc(Cl)cc1Cl` (stereo not drawn) [Example 4, 2-(2,4-Dichlorophenyl)-1-(imidazol-2-yl)-3-(1H-1,2,4-triazol-1-yl)propan-2-ol], the ED50 was found to be 1.2 mg/kg. As to `OC(Cc1ncn[nH]1)(Cn1cncn1)c1ccc(Cl)cc1Cl` (stereo not drawn) [Example 2, 2-(2,4-Dichlorophenyl)-1-(1,2,4-triazol-3-yl)-3-(1H-1,2,4-triazol-1-yl)propan-2-ol, dioxalate], the ED50 was determined as 2.2 mg/kg.

(Values after patent EP0115400A1, “Triazole antifungal agents” (Pfizer Limited, priority 1983, dated 1984).)
